Among the data in patent US10508077B2 (FORMA Therapeutics, Inc., priority 2015, dated 2019) are IC50 values, retold here.

This assay concerns the target T1, Full length human recombinant HDAC8 protein (Homo sapiens, UniProt Q9BY41).
T1 construct: Full length human recombinant HDAC8 protein was expressed in baculoviral system; made in house
T1 sequence (Q9BY41 1-377): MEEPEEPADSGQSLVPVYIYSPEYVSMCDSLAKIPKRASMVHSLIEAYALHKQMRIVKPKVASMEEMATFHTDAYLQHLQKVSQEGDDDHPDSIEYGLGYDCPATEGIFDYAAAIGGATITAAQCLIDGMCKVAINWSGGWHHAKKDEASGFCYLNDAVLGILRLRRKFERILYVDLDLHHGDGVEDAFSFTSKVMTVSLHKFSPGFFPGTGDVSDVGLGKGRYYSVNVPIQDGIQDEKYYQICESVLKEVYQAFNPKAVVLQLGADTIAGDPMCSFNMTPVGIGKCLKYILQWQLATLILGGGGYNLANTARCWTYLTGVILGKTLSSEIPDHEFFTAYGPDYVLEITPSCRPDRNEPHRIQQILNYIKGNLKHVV
Kind of assay: In vitro histone deacetylase assay: enzymatic HDAC8 assay, electrophoretic mobility shift. The class given is biochemical. The settings on record: substrate RHKK(Ac)-NH2, 1 nM enzyme, compounds listed under IC50 range headings. How it is done: The enzymatic HDAC8 assay was performed using electrophoretic mobility shift assay. Full length human recombinant HDAC8 protein was expressed in baculoviral system and purified by affinity chromatography. The enzymatic reactions were assembled in 384 well plates in a total volume of 25 μL in a reaction buffer composing: 100 mM HEPES, pH7.5, 25 mM KC, 0.1% bovine serum albumin, 0.01% Triton X-100, 1% DMSO (from compounds) 2 μM of the fluorescently labeled peptide substrate and enzyme. The enzyme was added at a final concentration of 1 nM. The peptide substrate RHKK(Ac)-NH2 was used. The compounds were tested at 12 concentrations spaced by 3× dilution intervals. Negative control samples (0%-inhibition in the absence of inhibitor) and positive control samples (100%-inhibition) were assembled in replicates of four in each assay plate. The reactions were incubated at 25° C. and quenched by the addition of 45 μL of termination buffer (100 mM HEPES, pH 7.5, 0.01% Triton X-100, 0.05% SDS).
The terminated assay plates were analyzed on LabChip® 3000 microfluidic electrophoresis instrument (Perkin Elmer/Caliper Life Sciences). The fluorescence intensity of the electrophoretically separated de-acetylated product and substrate peptide was measured. Activity in each sample was determined as the product to sum ratio (PSR): P/(S+P), where P is the peak height of the product peptide and S is the peak height of the substrate peptide. Percent inhibition (Pinh) is determined using the following equation: Pinh=(PSR0%−PSRinh)/(PSR0%−PSR100%)*100, where PSRinh is the product sum ratio in the presence of inhibitor, PSR0% is the average product sum ration in the absence of inhibitor and PSR 100% is the average product sum ratio in 100%-inhibition control samples. The IC50 values of inhibitors were determined by fitting the %-inhibition curves with 4 parameter dose-response model using XLfit 4 software. Ranges of IC50 values for compounds of the invention are disclosed in Table 26.

Turning to `COc1ccc(OC)c(S(=O)(=O)N2CCN(c3ccccc3/C=C/C(=O)NO)CC2)c1` [Example I-34], the IC50 lay in the range of 1000 to 10000 nM. Then `O=C(/C=C/c1ccccc1N1CCN(C(=O)C2(c3cnccn3)CC2)CC1)NO` [Example I-35, (2E)-N-hydroxy-3-(2-{4-[1-(pyrazin-2-yl)cyclopropanecarbonyl]piperazin-1-yl}phenyl)prop-2-enamide], with 1000 to 10000 nM; and `O=C(/C=C/c1ccccc1N1CCN(C(=O)C2(c3ccccc3)CC2)CC1)NO` [Example I-36, (E)-N-hydroxy-3-(2-(4-(1-phenylcyclopropane-1-carbonyl)piperazin-1-yl)phenyl)acrylamide], with 1000 to 10000 nM. Turning to `O=C(/C=C/c1ccccc1N1CCN(C(=O)C2(c3ccccc3)CCC2)CC1)NO` [Example I-37, (E)-N-hydroxy-3-(2-(4-(1-phenylcyclobutane-1-carbonyl)piperazin-1-yl)phenyl)acrylamide], the IC50 lay in the range of 1000 to 10000 nM. Turning to `O=C(/C=C/c1ccccc1NC(=O)c1nccn1-c1ccccc1C(F)(F)F)NO` [Example I-38, (E)-N-(2-(3-(hydroxyamino)-3-oxoprop-1-en-1-yl)phenyl)-1-(2-(trifluoromethyl)phenyl)-1H-imidazole-2-carboxamide], the half-maximal inhibitory concentration (IC50) fell in the range of 1000 to 10000 nM. Regarding `O=C(/C=C/c1ccccc1NCc1nc2ccccc2[nH]1)NO` [Example I-39, (E)-3-(2-(((1H-benzo[d]imidazol-2-yl)methyl)amino)phenyl)-N-hydroxyacrylamide], the IC50 is less than 1000 nM.

With `CC(=O)Nc1cccc(C(=O)Nc2ccccc2/C=C/C(=O)NO)c1` [Example I-42, (E)-3-acetamido-N-(2-(3-(hydroxyamino)-3-oxoprop-1-en-1-yl)phenyl)benazmide], the IC50 was less than 1000 nM. To `O=C(/C=C/c1ccccc1NCc1cccc(C(F)(F)F)c1)NO` [Example I-46, (E)-N-hydroxy-3-(2-((3-(trifluoromethyl)benzyl)amino)phenyl)acrylamide] belongs less than 1000 nM; to `CC(C)(C)OC(=O)N1CCC2(CCC(C(=O)Nc3ccccc3/C=C/C(=O)NO)CC2)CC1` [Example I-47, tert-butyl-(E)-9-((2-(3-(hydroxyamino)-3-oxoprop-1-en-1-yl)phenyl)carbamoyl)-3-azaspiro[5.4]undecane-3-carboxylate], less than 1000 nM; to `CC(C)(C)OC(=O)N1CCC2(CC1)CCN(c1ccccc1/C=C/C(=O)NO)CC2` [Example I-50, tert-butyl-(E)-9-(2-(3-(hydroxyamino)-3-oxoprop-1-en-1-yl)phenyl)-3,9-diazaspiro[5.5]undecane-3-carboxylate], less than 1000 nM. To `N#Cc1ccc2nc(CNc3ccccc3/C=C/C(=O)NO)[nH]c2c1` [Example I-51] belongs less than 1000 nM.

For the molecule `O=C(/C=C/c1ccccc1N1CCC2(CCNCC2)CC1)NO` [Example I-52, (E)-3-(2-(3,9-diazaspiro[5.5]undecan-3-yl)phenyl)-N-hydroxyacrylamide 2,2,2-trifluoroacetate], the IC50 was less than 1000 nM. As for `NC(=O)CCc1cccc(CNc2ccccc2/C=C/C(=O)NO)c1` [Example I-53, (E)-3-(2-((3-(3-amino-3-oxopropyl)benzyl)amino)phenyl)-N-hydroxyacrylamide], the IC50 is less than 1000 nM. To `O=C(/C=C/c1ccccc1NCC1CCCCC1)NO` [Example I-55, (E)-3-(2-((cyclohexylmethyl)amino)phenyl)-N-hydroxyacrylamide] belongs less than 1000 nM; to `O=C(/C=C/c1ccccc1NC(=O)C1CCCCC1)NO` [Example I-56, (E)-N-(2-(3-(hydroxyamino)-3-oxoprop-1-en-1-yl)phenyl)cyclohexanecarboxamide], less than 1000 nM. On to `O=C(/C=C/c1ccccc1N1CCCCC1)NO` [Example I-57, (E)-N-hydroxy-3-(2-(piperidin-1-yl)phenyl)acrylamide], for which the IC50 is less than 1000 nM. To `CC(C)(C)OC(=O)N1CCN(c2ccccc2/C=C/C(=O)NO)CC1` [Example I-58, tert-butyl (E)-4-(2-(3-(hydroxyamino)-3-oxoprop-1-en-1-yl)phenyl)piperazine-1-carboxylate] belongs less than 1000 nM.

For the molecule `O=C(/C=C/c1ccccc1N1CCNCC1)NO` [Example I-59, (E)-N-hydroxy-3-(2-(piperazin-1-yl)phenyl)acrylamide 2,2,2-trifluoroacetate], the half-inhibitory concentration (IC50) is less than 1000 nM. On to `CC(C)(C)OC(=O)NC1CCN(c2ccccc2/C=C/C(=O)NO)CC1` [Example I-60, tert-butyl (E)-(1-(2-(3-(hydroxyamino)-3-oxoprop-1-en-1-yl)phenyl)piperidin-4-yl)carbamate], for which the IC50 was less than 1000 nM. Then `CC(C(=O)Nc1ccccc1/C=C/C(=O)NO)N1CCS(=O)(=O)CC1` (stereo not drawn) [Example I-63, (E)-3-(2-(2-(1,1-dioxidothiomorpholino)propanamide)phenyl)-N-hydroxyacrylamide], with less than 1000 nM; and `O=C(/C=C/c1ccccc1NC(=O)C1(c2ccccc2)CC1)NO` [Example I-64, (E)-N-(2-(3-(hydroxyamino)-3-oxoprop-1-en-1-yl)phenyl)-1-phenylcyclopropane-1-carboxamide], with less than 1000 nM.

Turning to `O=C(/C=C/c1ccccc1NC(=O)c1cc2n(n1)CCC2)NO` [Example I-74, (E)-N-(2-(3-(hydroxyamino)-3-oxoprop-1-en-1-yl)phenyl)-5,6-dihydro-4H-pyrrolo[1,2-b]pyrazole-2-carboxamide], the IC50 is less than 1000 nM. Turning to `Cn1nc(C(F)(F)F)cc1-c1ccc(C(=O)Nc2ccccc2/C=C/C(=O)NO)s1` [Example I-78, (E)-N-(2-(3-(hydroxyamino)-3-oxoprop-1-en-1-yl)phenyl)-5-(1-methyl-3-(trifluoromethyl)-1H-pyrazol-5-yl)thiophene-2-carboxamide], the IC50 was less than 1000 nM. In the case of `Cc1cc(C(=O)Nc2ccccc2/C=C/C(=O)NO)n(C)n1` [Example I-80, (E)-N-(2-(3-(hydroxyamino)-3-oxoprop-1-en-1-yl)phenyl)-1,3-dimethyl-1H-pyrazole-5-carboxamide], the IC50 was less than 1000 nM.

Consider `O=C(/C=C/c1ccccc1NC(=O)c1cc2ccccn2n1)NO` [Example I-82, (E)-N-(2-(3-(hydroxyamino)-3-oxoprop-1-en-1-yl)phenyl)pyrazolo[1,5-a]pyridine-2-carboxamide], for which the IC50 is less than 1000 nM.

`O=C(/C=C/c1ccccc1NCc1ccc(Cl)cc1)NO` [Example I-86, (E)-3-(2-((4-chlorobenzyl)amino)phenyl)-N-hydroxyacrylamide]: the IC50 was less than 1000 nM. Then `CC(C)c1ccc(CNc2ccccc2/C=C/C(=O)NO)nc1` [Example I-87, (E)-N-hydroxy-3-(2-(((5-isopropylpyridin-2-yl)methyl)amino)phenyl)acrylamide], with less than 1000 nM.

On to `O=C(/C=C/c1ccccc1NCc1ccnc2ccccc12)NO` [Example I-88, (E)-N-hydroxy-3-(2-((quinolin-4-ylmethyl)amino)phenyl)acrylamide], for which the IC50 was less than 1000 nM. To `COc1cncc(CNc2ccccc2/C=C/C(=O)NO)c1` [Example I-90] belongs less than 1000 nM. Take `O=C(/C=C/c1ccccc1NCc1ccc(-c2ccccn2)cc1)NO` [Example I-92, (E)-N-hydroxy-3-(2-((4-(pyridin-2-yl)benzyl)amino)phenyl)acrylamide]: the IC50 is less than 1000 nM.

As usually defined, the IC50 is the concentration that gives 50% inhibition.
